Ten compounds from patent EP0192976A1, “Compounds having antihyperlipemic activity, processes for the preparation thereof and pharmaceutical compositions containing them” (BOEHRINGER BIOCHEMIA ROBIN S.p.A., priority 1985, dated 1986) can be followed below.

Data set [1] deals with thrombosis induced by the administration of arachidonic acid, as well as colla- gene and adrenalin. Put plainly: Mouse antithrombotic assay (di Minno and Silver). Format: in vivo. As to conditions: orally administered at doses from 100 to 250 mg/kg; thrombosis induced by arachidonic acid, and by collagen and adrenalin. The text has this: Exper. Therap. 225, 57 (1983).
The subject of data set [2] is hypercholesterolemic animals (Nath diet). Put plainly: Hypocholesterolemic/hypotriglyceridemic activity in hypercholesterolemic rats (Nath diet). Format: in vivo, Male Sprague-Dawley rats. Conditions: oral. Here is the method: (§1) The single compounds were administered orally at single equimolecular gradually increasing doses, in order to comparatively evaluate their hypocholesterolemic and hypotriglyceridemic activities. Normolipidemic, and hypercholesterolemic and hypertriglyceridemic rats, following to administration of diets respectively enriched in cholesterol and cholic acid (Nath diet) or 79.5% fructose, were used.
(§2) Male Sprague-Dawley rats of 180-200 g body weight were used. The compounds under test were administered as 1% tylose suspension, by means of gastric probe, 10 animals per dose in comparison with controls, treated with the sole vehicle.
Four dose levels: 1, 2, 4, 8 10^-3 mol/kg were used for each compound under test. The body growth and liver weight were evaluated.
(§3) In the serum the following values were determined: • a) total cholesterol, by enzymatic method; • b) HDL cholesterol, by enzymatic method, after precipitation of the other lipoproteins by addition of phospho- tungstic acid; • c) triglycerides by enzymatic method, i.e. by means of enzymatic hydrolysis and dosage of the formed glycerol.
(§4) The dosage of the liver triglycerides has been carried out by enzymatic method on the evaporated liver extract with chloroform:methanol 2:1.
(§5) The results were evaluated and expressed as % variation with respect to the control groups.

Data set [3] relates to Adrenalin induced lypolysis. Put plainly: Antilipolytic activity, adrenalin induced lipolysis (free fatty acids). Format: in vivo. Conditions: 1·10^-3 mol/kg oral. Here is the method: (§6) The compounds were administered orally. […] The results are expressed as µEq/1 of free fatty acids.
10 Animals per group - Feeded and housed for one weed, then administered orally and stimulated with adrenalin 1 mg/kg i.p., respectively 30 and 60 min. before killing.

Data set [4] concerns fructose induced hypertriglyceridemia. Put plainly: Fructose induced hypertriglyceridemia. As to conditions: fructose and Triton induced hypertriglyceridemias (test not given). Format: in vivo, Male Sprague-Dawley rats. Here is the method: as §1, §2, §3, §4, §5
The hypotriglyceridemyzing activity of the compounds of the invention, as already mentioned, was evaluated in fructose and Triton induced hypertriglyceridemias, in comparison with the following standard: 1,10-bisL2-(hydroxyethyl)thio]decane (3) and its nicotinate (4) and nicoti- noyloxymethylcarbonyloxy ester (5).
All the compounds were administered 'at equimolecular gradual dosages.

The subject of data set [5] is Fasting induced lipolysis. As to the kind of experiment: Antilipolytic activity, fasting induced lipolysis (free fatty acids). Format: in vivo. Conditions: fasted for 24 hours. The protocol: as §6
10 Animals per group - Normally feeded for 6 days, then fasted for 24 hours and orally administered with the test compounds.

Data set [6] concerns Normolipolysis. As to the kind of experiment: Antilipolytic activity, normolipolysis (free fatty acids). Conditions: for antilipolytic activity: oral, under normal feeding conditions and in lipolysis induced by fasting or adrenalin. Type of data set: in vivo. Here is the method: as §6
10 Animals per group - Normally feeded for 7 days, then administered with the test compounds.

Data set [7] concerns ear marginal veins. As to conditions: guinea pig, in vivo.
Excerpt: (§7) Such a side-effect may be experimented on male albino Guinea pigs, weighing 300-400 g, normally feeded and housed in silent room, by observing the vasodilation of ear marginal veins, after administration of the test compounds.
The test system of data set [8] is ear marginal veins. Put plainly: Vasodilation of ear marginal veins (flushing side-effect). As to conditions: Guinea pigs, 1·10^-3 mol/kg.
Excerpt: as §7
[9] abbreviates: 30', adrenalin 1 mg/kg i.p. 30 min before killing.
Setting [10] is: 60', adrenalin 1 mg/kg i.p. 60 min before killing.
Where [11] appears, read: 2 hours after 1·10^-3 mol/kg oral single dose.
Where [12] appears, read: 4 hours after 1·10^-3 mol/kg oral single dose.
Setting [13] is: 8 hours after 1·10^-3 mol/kg oral single dose.
Where [14] appears, read: 2 hours after 1·10^-3 mol/kg oral single dose, normally fed.
Where [15] appears, read: 4 hours after 1·10^-3 mol/kg oral single dose, normally fed.
Where [16] appears, read: 8 hours after 1·10^-3 mol/kg oral single dose, normally fed.
[17] abbreviates: Basal, normally fed 7 days, group later given 1·10^-3 mol/kg oral single dose.
Setting [18] is: 4·10^-3 mol/kg, % variation versus controls.

SMILES strings stand for the structures. Like-named read-outs stand apart in the source and are kept apart here.

For `O=C(NC(Cc1ccccc1)C(=O)OCCSCCCCCCCCCCSCCOC(=O)C(Cc1ccccc1)NC(=O)c1cccnc1)c1cccnc1` (centres unmarked) [1,10-bis[2-(nicotinoylphenylalanyl)ethylthio]decane], in data set [1], the protection from thrombosis entry was “protect the mouse from thrombosis”.

Consider `O=C(CNC(=O)c1cncc(Br)c1)OCCSCCCCCCCCCCSCCOC(=O)CNC(=O)c1cncc(Br)c1` [Example 5, 1,10-Bis[2-(5-bromn-nicotinoylglicyl)ethyl-thio]decane], for which the protection from thrombosis entry in data set [1] is “protect the mouse from thrombosis”.

`CCC(C)C(NC(=O)c1cccnc1)C(=O)OCCSCCCCCCCCCCSCCOC(=O)C(NC(=O)c1cccnc1)C(C)CC` (centres unmarked): the protection from thrombosis entry in data set [1] was “protect the mouse from thrombosis”.

As to `O=C(OCCSCCCCCCCCCCSCCOC(=O)c1cccnc1)c1cccnc1` [Compound 4], in data set [2] (2·10^-3 mol/kg, versus controls), the “preliminar increase of the total cholesterol” value is 10%. Moreover, the HDL concentration entry in data set [2] (all the assayed doses, the decrease lessened with increasing dose) is “marked decrease”. Further, the triglyceride hematic concentration entry in data set [2] (all the tested doses, tendency to decrease with increasing dose) is “always higher than that in the control animals”. Further, the “decrease of the total cholesterol versus controls” value in data set [2] (doses above 2·10^-3 mol/kg, did not vary increasing the dose) amounted to 50%. Further, the liver weight result in data set [2] (over the tested doses) is recorded as “gradual increase”. Moreover, the FFA is recorded as 295 μEq/l in data set [3] (setting [9]) and 625 μEq/l in data set [3] (setting [10]). Further, the “triglyceride hepatic concentration, increases” value in data set [4] was 40-50%. Moreover, the free fatty acids in data set [5] (setting [11]) is 250 µEq/1; in data set [5] (setting [12]), 240 µEq/1; in data set [5] (setting [13]) it was 970 µEq/1; in data set [6] (setting [14]), 120 µEq/1; in data set [6] (setting [15]), 155 µEq/1; in data set [6] (setting [16]), 450 µEq/1. For the same compound, in data set [6] (setting [17]), the free fatty acids is 230 µEq/1. Moreover, in data set [7], the “Vasodilating effect: Beginning” value was 10'. Also, in data set [7], the “Vasodilating effect: Beginning of disappearance” value was 48'. Besides, in data set [7], the “Vasodilating effect: Maximal effect” value is on record as 25'.

Consider `O=C(O)c1cccnc1` [Compound 2, nicotinic acid], for which the FFA was 340 μEq/l in data set [3] (setting [9]) and 650 μEq/l in data set [3] (setting [10]). The “Vasodilating effect: Beginning” value in data set [8] is on record as 3'. The “Vasodilating effect: Beginning of disappearance” value in data set [8] is 20'. Also, in data set [8], the “Vasodilating effect: Maximal effect” value was 6'. Besides, the free fatty acids in data set [5] (setting [11]) turned out to be 180 µEq/1; in data set [5] (setting [12]), 190 µEq/1; in data set [5] (setting [13]), 950 µEq/1; in data set [6] (setting [14]) it was 110 µEq/1; in data set [6] (setting [15]) it was 160 µEq/1; in data set [6] (setting [16]), 560 µEq/1. In data set [6] (setting [17]), the free fatty acids amounted to 260 µEq/1. Further, in data set [6], the antilipolytic activity result is “proved to have antilipolytic activity”.

As for `O=C(COC(=O)c1cccnc1)OCCSCCCCCCCCCCSCCOC(=O)COC(=O)c1cccnc1` [Compound 5, 1,10-bis[2-(nicotino-yloxymethylcarbonyloxy)ethylthio]decane], the “concentration of hepatic triglycerides” value in data set [2] (4·10^-3 mol/kg) is recorded as “increase”. Moreover, the “decrease in hematic HDL cholesterol” value in data set [2] (setting [18]) is given as 6%. Besides, in data set [2] (setting [18]), the “decrease in hematic triglycerides” value was found to be 34%. Moreover, the “decrease of total plasmatic cholesterol” value in data set [2] (setting [18]) is recorded as 30%. Further, the figures for the FFA in data set [3] (setting [9]) and in data set [3] (setting [10]) were 270 μEq/l and 610 μEq/l, respectively. Moreover, in data set [4], the “triglyceride hepatic concentration, percent variations” value was -10 to +10%. The free fatty acids turned out to be 207 µEq/1 in data set [5] (setting [11]); 228 µEq/1 in data set [5] (setting [12]); 744 µEq/1 in data set [5] (setting [13]); 120 µEq/1 in data set [6] (setting [14]); 170 µEq/1 in data set [6] (setting [15]); 260 µEq/1 in data set [6] (setting [16]). In data set [6] (setting [17]), this compound had a free fatty acids of 240 µEq/1. Also, the antilipolytic activity entry in data set [6] is reported as “proved to have antilipolytic activity”. Further, the “Vasodilating effect: Beginning” value in data set [7] is reported as 13'. Further, the “Vasodilating effect: Beginning of disappearance” value in data set [7] is reported as 51'. Besides, the “Vasodilating effect: Maximal effect” value in data set [7] is reported as 30'.

Regarding `CC(NC(=O)c1cccnc1)C(=O)OCCSCCCCCCCCCCSCCOC(=O)C(C)NC(=O)c1cccnc1` (centres unmarked) [Example 7, 1,10-bis[2-(nicotinoyialanylethyl)thio]decane], the protection from thrombosis result in data set [1] is “protect the mouse from thrombosis”.

For `OCCSCCCCCCCCCCSCCO` [Compound 3, 1,10-bis[2-(hydroxyethyl)thio]decane], the “triglyceride hepatic concentration, increases” value in data set [4] is 40-50%.

As to `O=C(CNC(=O)c1cccnc1)OCCSCCCCCCCCCCSCCOC(=O)CNC(=O)c1cccnc1` [Compound 1], the liver weight result in data set [2] (4·10^-3 mol/kg) is given as “no substantial changes”. For the same compound, the “decrease in hematic triglycerides” value in data set [2] (setting [18]) turned out to be 4%. In data set [2] (setting [18]), the “decrease in hepatic triglycerides” value was 48%. Moreover, the “decrease of total plasmatic cholesterol” value in data set [2] (setting [18]) was 37%. In data set [2] (setting [18]), the “increase in HDL cholesterol” value came out at 7%. In addition, the FFA in data set [3] (setting [9]) is 450 μEq/l; in data set [3] (setting [10]), 400 μEq/l. Also, the “triglyceride hepatic concentration, percent variations” value in data set [4] is -10 to +10%. In addition, the free fatty acids in data set [5] (setting [11]) came to 480 µEq/1; in data set [5] (setting [12]) it was 430 µEq/1; in data set [5] (setting [13]) it was 400 µEq/1; in data set [6] (setting [14]), 200 µEq/1; in data set [6] (setting [15]) it was 225 µEq/1; in data set [6] (setting [16]) it was 270 µEq/1. Further, the free fatty acids in data set [6] (setting [17]) came to 230 µEq/1. Also, the “Vasodilating effect: Beginning” value in data set [7] is listed as “==”. In data set [7], the “Vasodilating effect: Beginning of disappearance” value is on record as “==”. Further, the “Vasodilating effect: Maximal effect” value in data set [7] is “==”. Also, in data set [1], the protection from thrombosis entry is recorded as “protect the mouse from thrombosis”.

As to `Cc1cnc(C(=O)NCC(=O)OCCSCCCCCCCCCCSCCOC(=O)CNC(=O)c2cnc(C)cn2)cn1` [1,10-bis[2-(5-methylpyrazinoylglycyl)ethylthio]decane], the protection from thrombosis entry in data set [1] is given as “protect the mouse from thrombosis”.
